Values quoted from earlier work in the PKSmart pharmacokinetics tables (Seal et al. 2025).
Where a SMILES comes first, the peptide text is derived from it. Bridges are numbered along the chain shown (N, C = ends). [ ]: non-standard residue; d: D form. ξ: configuration not given here. ξ2Nal = NC(Cc1ccc2ccccc2c1)C(=O)O; ξW = NC(Cc1c[nH]c2ccccc12)C(=O)O; ξThr(3R) = C[C@@H](O)C(N)C(=O)O; ξY = NC(Cc1ccc(O)cc1)C(=O)O; ξK = NCCCCC(N)C(=O)O; ξV = CC(C)C(N)C(=O)O; ξC = NC(CS)C(=O)O

Experiment: Lombardo, Berellini, Obach 2018, Drug Metab Dispos 46:1466, doi 10.1124/dmd.118.082966
Conditions: human; for MRT / Vd / clearance / half-life: in vivo, iv; for fraction unbound: plasma

SMILES	MRT [h]	Vd [L/kg]	clearance [mL/min/kg]	half-life [h]	fraction unbound
CN(C)CCCO[C@@H]1[C@H]2OC(C)(C)O[C@H]2O[C@@H]1[C@H](O)CO	5	1.04	3.48	4.07	0.97
CN1CCN2c3ccccc3Cc3ccccc3[C@H]2C1	10.5	13.8	21.9	9.6	0.05
N#C[C@@H](O[C@@H]1O[C@H](CO[C@@H]2O[C@H](CO)[C@@H](O)[C@H](O)[C@H]2O)[C@@H](O)[C@H](O)[C@H]1O)c1ccccc1	1.83	0.21	1.88	1.23	–
C#Cc1cccc(Nc2ncnc3cc(OC)c(OCCCCCCC(O)=NO)cc23)c1	0.78	0.56	12	5.01	–
NC(O)=NO	4.8	0.52	1.5	3.4	–
CN[C@@H]1[C@@H](O)[C@@H](O[C@@H]2[C@@H](O)[C@H](O[C@H]3OC(CNCCO)=CC[C@H]3N)[C@@H](N)C[C@H]2NC(=O)C(O)CCN)OC[C@]1(C)O (stereo partly drawn)	3.2	0.22	1.14	3.4	0.84
CN[C@@H]1C[C@H]2OC(C)([C@@H]1OC)n1c3ccccc3c3c4c(c5c6ccccc6n2c5c31)C(=O)N[C@@H]4O	680	0.15	0.0037	790	0.0022
CC(C)C1CCC(C(=O)NC(Cc2ccccc2)C(=O)O)CC1 (stereo not drawn)	1.4	0.15	1.8	1.5	–
CNCc1ccc(-c2[nH]c3cc(F)cc4c3c2CCNC4=O)cc1	12.7	3.28	4.31	16.6	–
CCC(=O)O[C@H](CC(=O)[O-])C[N+](C)(C)C	2.15	0.3	2.33	1.28	–
CC(C)C1NC(=O)C(CCCCN)NC(=O)C(Cc2c[nH]c3ccccc23)NC(=O)C(Cc2ccc(O)cc2)NC(=O)C(NC(=O)C(N)Cc2ccc3ccccc3c2)CSSCC(C(=O)NC(C(N)=O)[C@@H](C)O)NC1=O (stereo partly drawn) (H-[ξ2Nal][ξC][ξY][ξW][ξK][ξV][ξC][ξThr(3R)]-NH2; disulfide 2-7)	0.57	0.2	5.7	1.03	–
CCCCCc1cc(O)c2c(c1)OC(C)(C)[C@@H]1CCC(C(=O)O)=C[C@@H]21	18.1	1.28	1.2	17.6	–
CCC/N=C1\S/C(=C\c2ccc(OC[C@H](O)CO)c(Cl)c2)C(=O)N1c1ccccc1C	42.6	2.28	0.9	32.9	–
NNC(=O)c1ccncc1	1.8	0.82	7.4	–	1
CC(C(=O)O)c1ccc2c(c1)[nH]c1ccc(Cl)cc12 (stereo not drawn)	7.2	0.22	0.51	9.9	0.001
C=CC[N@@+]12CC[C@@]34c5ccccc5N5C=C6[C@H]7C[C@H]8[C@@]9(CC[N@@+]8(CC=C)C/C7=C/CO)c7ccccc7N(C=C([C@@H](C[C@@H]31)/C(=C\CO)C2)[C@H]54)[C@@H]69	4.1	0.32	1.3	3.6	–
CCCn1c(=O)c2[nH]c(C34CC5CC(CC3C5)C4)nc2n(CCC)c1=O	14.1	4.3	5	18.1	–
CCN(CC)C(=O)[C@]1(c2ccccc2)C[C@@H]1CN	8.17	4.51	8.17	6.48	–
C[C@]12CC=C3C4=C(CCC3[C@@H]1CC[C@@]2(O)CC#N)CC(=O)CC4 (stereo partly drawn)	8.52	0.6	1.29	11	0.1
COc1ccc2c3c1O[C@H]1[C@@H](O)CC[C@H]4[C@@H](C2)N(C)CC[C@@]341	4.08	1.07	4.21	3.42	–
OC[C@H]1O[C@@H]2O[C@H]3[C@H](O)[C@@H](O)[C@@H](O[C@H]4[C@H](O)[C@@H](O)[C@@H](O[C@H]5[C@H](O)[C@@H](O)[C@@H](O[C@H]6[C@H](O)[C@@H](O)[C@@H](O[C@H]7[C@H](O)[C@@H](O)[C@@H](O[C@H]8[C@H](O)[C@@H](O)[C@@H](O[C@H]1[C@H](O)[C@H]2O)O[C@@H]8CO)O[C@@H]7CO)O[C@@H]6CO)O[C@@H]5CO)O[C@@H]4CO)O[C@@H]3CO	1.9	0.21	1.8	1.6	–

SMILES	MRT [h]	Vd [L/kg]	clearance [mL/min/kg]	half-life [h]	fraction unbound
CN(C)[C@@H]1C(O)=C(C(=O)NCN2CCCC2)C(=O)[C@@]2(O)C(O)=C3C(=O)c4c(O)cccc4[C@@](C)(O)[C@H]3C[C@@H]12	9.3	0.54	0.97	8.8	0.5
COc1ccc(/C=C\c2cc(OC)c(OC)c(OC)c2)cc1NC(=O)C(N)CO (stereo not drawn)	0.32	0.44	22.6	0.26	–
CC(C(=O)O)c1ccc(C(=O)c2ccccc2)s1 (stereo not drawn)	2.3	0.08	0.62	2.1	0.015
CC(C)(O)[C@@H]1CC[C@](C)([C@H]2[C@@H](O)C[C@@]3(C)[C@@H]4C[C@H](O[C@@H]5O[C@H](CO)[C@@H](O)[C@H](O)[C@H]5O)[C@H]5C(C)(C)[C@@H](O[C@@H]6OC[C@@H](O)[C@H](O)[C@H]6O)CC[C@@]56C[C@@]46CC[C@]23C)O1	2.78	0.12	0.74	2.65	0.14
CCC(C)CC(C)CCCCCCCCC(=O)NC1CC(O)C(NCCN)NC(=O)C2C(O)CCN2C(=O)C(C(O)CCN)NC(=O)C(C(O)C(O)c2ccc(O)cc2)NC(=O)C2CC(O)CN2C(=O)C(C(C)O)NC1=O (stereo not drawn)	–	–	–	–	0.035
CCN(CC)CCS(=O)(=O)[C@@H]1CCN2C(=O)c3coc(n3)CC(=O)C[C@H](O)/C=C(C)/C=C\CNC(=O)/C=C/[C@@H](C)[C@H](C(C)C)OC(=O)C12 (stereo partly drawn)	0.41	0.39	16	0.74	0.82
COc1ccc(/C=C\c2cc(OC)c(OC)c(OC)c2)cc1OP(=O)(O)O	0.3	0.11	5.86	0.47	0.23
CC(C)(F)CC(N[C@@H](c1ccc(-c2ccc(S(C)(=O)=O)cc2)cc1)C(F)(F)F)C(=O)NC1(C#N)CC1 (stereo partly drawn)	147	1.63	0.19	108	–
CC(NC(CCc1ccccc1)C(=O)O)C(=O)N1Cc2ccccc2CC1C(=O)O (stereo not drawn)	2.3	0.13	0.93	2.3	–
NC(=O)N1c2ccccc2CC(O)c2ccccc21 (stereo not drawn)	13.6	0.72	0.88	9.8	0.7
CCN(CC)CCNC(=O)c1cc(Cl)c(N)cc1OC(C)C(C)=O (stereo not drawn)	2.68	1.5	9.32	2.7	0.46
CN/C(=C\[N+](=O)[O-])NCCSCc1csc(CN(C)C)n1	1.7	1	9.8	1.5	–
CS(=O)(=O)c1ccc(C2=C(c3ccccc3)C(=O)OC2)cc1	10.8	1.3	2	7.5	0.13
OCc1cc([C@@H](O)CNCCCCCCOCCOCc2c(Cl)cccc2Cl)ccc1O	1.53	2.38	25.7	2.4	0.06
C[C@H]1c2cccc(O)c2C(=O)C2=C(O)[C@]3(O)C(=O)C(C(N)=O)=C(O)[C@@H](N(C)C)[C@@H]3[C@@H](O)[C@@H]21	25	0.69	0.46	14	–
COC1C(=O)C(C)C[C@H](C)/C=C/C=C/C=C(\C)[C@@H](OC)C[C@@H]2CC[C@@H](C)[C@@](O)(O2)C(=O)C(=O)N2CCCCC2C(=O)O[C@H]([C@H](C)C[C@@H]2CC[C@H](n3cnnn3)[C@H](OC)C2)CC(=O)C(C)=CC(C)[C@H]1O (stereo partly drawn)	33	1.3	0.67	35	0.26
Cn1cncc1[C@@](N)(c1ccc(Cl)cc1)c1ccc2c(c1)c(-c1cccc(Cl)c1)cc(=O)n2C	3.07	0.93	5.03	2.52	0.006
Cc1nc(=O)c(C#N)c(NCc2cccnc2)[nH]1	1.1	0.39	5.8	0.95	0.05
Cc1cc(C)c2c(c1)[C@@H](N(Cc1cc(C(F)(F)F)cc(C(F)(F)F)c1)c1nnn(C)n1)CCCN2CC1CCC(C(=O)O)CC1 (stereo partly drawn)	36.1	1.82	0.84	51.9	0.001
CCOC(=O)C1(c2ccccc2)CCN(CCC(O)c2ccccc2)CC1 (stereo not drawn)	4.32	5.7	22	3.22	–
O=C(O)Cn1c(=O)c(=O)[nH]c2cc([N+](=O)[O-])c(-n3ccnc3)cc21	0.6	0.19	5.3	0.78	–

SMILES	MRT [h]	Vd [L/kg]	clearance [mL/min/kg]	half-life [h]	fraction unbound
Cc1ncc([N+](=O)[O-])n1CC(O)CN1CCOCC1 (stereo not drawn)	7.9	0.75	1.6	6.2	–
NCC1CCC(C(=O)O)CC1 (stereo not drawn)	2.6	0.38	2.4	2.3	–
CCN[C@@H]1C[C@H](N)[C@@H](O[C@H]2OC(CN)=CC[C@H]2N)[C@H](O)[C@H]1O[C@H]1OC[C@](C)(O)[C@H](NC)[C@H]1O	2.2	0.073	0.55	3.2	1
C=CCN1CCCC1CNC(=O)c1cc2[nH]nnc2cc1OC (stereo not drawn)	4	1.6	6.6	2.8	–
CCC(=O)C1(c2cccc(O)c2)CCN(C)CC1	0.87	0.48	9.2	2.3	–
CC(=O)N1CCN([C@H]2CCN(C(=O)N(C)[C@H](C)c3cc(C(F)(F)F)cc(C(F)(F)F)c3)[C@@H](c3ccc(F)cc3C)C2)CC1	15	2.77	3.07	15.6	1
Cc1nnc(SCC2=C(C(=O)O)N3C(=O)C(NC(=O)Cn4cc(Cl)c(=O)c(Cl)c4)[C@H]3SC2)s1 (stereo partly drawn)	2.3	0.13	0.95	1.91	–
Cc1[nH]cnc1CN1CCc2c(c3ccccc3n2C)C1=O	2.1	1.1	8.7	1.6	–
COc1ccccc1N1CCN(C[C@@H](O)COc2cccc3ccccc23)CC1	–	–	11	3.3	0.008
CC(=O)NCCCS(=O)(=O)O	1.54	0.3	3.75	3.2	1
COc1c(C)c2c(c(O)c1C/C=C(\C)CCC(=O)O)C(=O)OC2	6.5	0.77	2.33	9.7	0.02
COCC(NC(C)=O)C(=O)NCc1ccccc1 (stereo not drawn)	17.2	0.58	0.57	12.3	0.85
C[C@]12CC[C@H]3[C@@H](CC=C4CC(=O)CC[C@@]43C)[C@@H]1CC[C@@H]2O	0.25	0.35	24.5	0.17	0.057
CO[C@H]1[C@@H](O)[C@H](N)[C@@H](O[C@H]2O[C@H]([C@H](C)N)CC[C@H]2N)[C@H](O)[C@H]1N(C)C(=O)CN	2.8	0.23	1.37	2	–
CN(C)CCCN1c2ccccc2CCc2ccccc21	–	–	–	–	0.075
CC[C@H]1OC(=O)C(C)C(=O)C(C)[C@@H](O[C@@H]2O[C@H](C)C[C@H](N(C)C)[C@H]2O)[C@](C)(OC)CC(C)C(=O)C(C)[C@H]2N(CCCCn3cnc(-c4cccnc4)c3)C(=O)O[C@]12C (stereo partly drawn)	3.6	3	14	12	0.41
C[N+]1(C)CCC(OC(=O)C(O)(c2ccccc2)C2CCCC2)C1 (stereo not drawn)	0.37	–	–	–	–
O=C(CCCN1CCC(n2c(=O)[nH]c3ccccc32)CC1)c1ccc(F)cc1	7.5	3.8	8.3	5.8	–
CCCCC[C@H](O)/C=C/[C@@H]1C(CCCCCCC(=O)O)C(=O)C[C@H]1O (stereo partly drawn)	0.9	2.4	45.4	1.9	–
COc1ccc2[nH]c3c(c2c1)CCN[C@]31CS[C@@H]2c3c(OC(C)=O)c(C)c4c(c3[C@H](COC1=O)N1[C@@H]2[C@H]2c3c(cc(C)c(OC)c3O)C[C@@H]([C@@H]1O)N2C)OCO4	44	7.3	2.76	50.7	–
CSCO[C@H]1C[C@H]2OC[C@@]2(OC(C)=O)[C@H]2[C@H](OC(=O)c3ccccc3)[C@]3(O)C[C@H](OC(=O)C(O)C(NC(=O)c4ccccc4)c4ccccc4)C(C)=C(C(OC(C)=O)C(=O)[C@]12C)C3(C)C (stereo partly drawn)	29	11	6.4	32	–
